In EP4707280A1, “1,4-CINEOLE DERIVATIVE AND INTERMEDIATE THEREOF, HERBICIDE CONTAINING SAID DERIVATIVE AS ACTIVE INGREDIENT, METHOD FOR USING HERBICIDE, AND METHOD FOR PREPARING AGROCHEMICAL COMPOSITION” (HOKKO CHEMICAL INDUSTRY CO., LTD., priority 2023, dated 2024):

Experiments:
Type in all cases: in vivo
Scirpus juncoides [1] = test: Test Example 2: herbicidal effect test by application during growth period of paddy rice; conditions: 120 g per 10 ares, applied seven days after sowing, flooded pots, 14 days after application; for inhibition at 1200 g/ha: Schoenoplectiella juncoides, read-out: weed inhibition rate
In short: (§1)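 Weeds sown into puddled, flooded paddy soil received a post-emergence water application of emulsifiable concentrate at 120 g active ingredient per 10 ares, seven days after sowing. Herbicidal effect was rated 14 days later as inhibition (%).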

[2] = test system: Echinochloa crus-galli var. formosensis; test: as above; conditions: 120 g per 10 ares, applied seven days after sowing, flooded pots, 14 days after application; for inhibition at 1200 g/ha: Echinochloa crus-galli, read-out: weed inhibition rate
In short: as §1

Scirpus juncoides [3] = test: Test Example 1: herbicidal effect test by soil application in paddy rice; conditions: 120 g active ingredient per 10 ares, applied immediately after sowing, flooded pots, 14 days after application; for pest or weed control at 1200 g/ha: Schoenoplectiella juncoides, soil, 336 h, read-out: weed inhibition rate
In short: (§2)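 Flooded-pot paddy assay: sow at 0–1 cm, flood to about 3 cm, then apply diluted emulsifiable concentrate by dropper, 120 g a.i. per 10 ares; greenhouse-grown.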

[4] = test system: Echinochloa crus-galli var. formosensis; test: as above; conditions: 120 g active ingredient per 10 ares, applied immediately after sowing, flooded pots, 14 days after application; for pest or weed control at 1200 g/ha: Echinochloa crus-galli, soil, 336 h, read-out: weed inhibition rate
In short: as §2

Digitaria ciliaris [5] = test: Test Example 3: herbicidal effect test by soil application in upland field; conditions: 120 g per 10 ares, sprayed one day after sowing, 14 days after application; for inhibition at 1200 g/ha: Digitaria ciliaris, read-out: weed inhibition rate
In short: (§3)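 Weed inhibition (%) was assessed 14 days after treatment, in duplicate per concentration group. Seeds had been mixed into the upper 1 cm of upland alluvial loam, and the soil surface was sprayed one day later with the diluted emulsifiable concentrate at 120 g active ingredient per 10 ares.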

Echinochloa crus-galli [6] = test: as above; conditions: 120 g per 10 ares, sprayed one day after sowing, 14 days after application; for inhibition at 1200 g/ha: Echinochloa crus-galli, read-out: weed inhibition rate
In short: as §3

Digitaria ciliaris [7] = test: Test Example 4: herbicidal effect test by stem and leaf treatment in upland field; conditions: 120 g per 10 ares, sprayed seven days after sowing, upland soil, 14 days after application; for inhibition at 1200 g/ha: Digitaria ciliaris, read-out: weed inhibition rate
Echinochloa crus-galli [8] = test: as above; conditions: 120 g per 10 ares, sprayed seven days after sowing, upland soil, 14 days after application; for inhibition at 1200 g/ha: Echinochloa crus-galli, read-out: weed inhibition rate

CC(=O)O[C@H]1C[C@]2(C)O[C@@]1(C(C)C)C[C@H]2OCc1ccccc1F (racemic) [1-480, [(1R,2S,4S,SR)-5-[(2-fluorophenyl)methoxy]-4-methyl-1-isopropyl-7-oxabicyclo[2.2.1]heptan-2-yl]acetate]
≥ 80%: weed inhibition rate (Scirpus juncoides [1]) | weed inhibition rate [2] | weed inhibition rate (Scirpus juncoides [3]) | weed inhibition rate [4] | weed inhibition rate (Digitaria ciliaris [5]) | weed inhibition rate (Echinochloa crus-galli [6]) | weed inhibition rate (Digitaria ciliaris [7]) | weed inhibition rate (Echinochloa crus-galli [8])

CC(C)[C@]12C[C@@H](OCc3ccccc3OC(F)(F)F)[C@](C)(C[C@@H]1I)O2 [1-750, (1R,2S,4S,5R)-2-iodo-1-isopropyl-4-methyl-5-[[2-(trifluoromethoxy)phenyl]methoxy]-7-oxabicyclo[2.2.1]heptane]
≥ 80%: inhibition at 1200 g/ha (Scirpus juncoides [1]) | inhibition at 1200 g/ha [2] | pest or weed control at 1200 g/ha (Scirpus juncoides [3]) | pest or weed control at 1200 g/ha [4]

CC(C)[C@]12C[C@@H](OCc3ccccc3C(F)(F)F)[C@](C)(C[C@@H]1I)O2 [1-765, (1R,2S,4S,5R)-2-iodo-1-isopropyl-4-methyl-5-[[2-(trifluoromethyl)phenyl]methoxy]-7-oxabicyclo[2.2.1]heptane]
≥ 80%: inhibition at 1200 g/ha (Scirpus juncoides [1]) | inhibition at 1200 g/ha [2] | pest or weed control at 1200 g/ha (Scirpus juncoides [3]) | pest or weed control at 1200 g/ha [4]

Cc1noc(C)c1CO[C@@H]1C[C@]2(C(C)C)O[C@@]1(C)C[C@@H]2I [1-790, 4-[[(1S,2R,4R,5S)-5-iodo-4-isopropyl-1-methyl-7-oxabicyclo [2.2.1]heptane-2-yl]oxymethyl]-3,5-dimethyl-isoxazole]
≥ 80%: inhibition at 1200 g/ha (Scirpus juncoides [1]) | inhibition at 1200 g/ha [2] | pest or weed control at 1200 g/ha (Scirpus juncoides [3]) | pest or weed control at 1200 g/ha [4]

CC(C)[C@@]12C[C@H](OCc3ccccn3)[C@@](C)(C[C@H]1I)O2 [1-1126, 2-[[(1R,2S,4S,5R)-5-iodo-1-methyl-4-isopropyl-7-oxabicyclo[2.2.1]heptan-2-yl]oxymethyl]pyridine]
≥ 80%: inhibition at 1200 g/ha (Scirpus juncoides [1]) | inhibition at 1200 g/ha [2] | pest or weed control at 1200 g/ha (Scirpus juncoides [3]) | pest or weed control at 1200 g/ha [4] | inhibition at 1200 g/ha (Digitaria ciliaris [5]) | inhibition at 1200 g/ha (Echinochloa crus-galli [6]) | inhibition at 1200 g/ha (Digitaria ciliaris [7]) | inhibition at 1200 g/ha (Echinochloa crus-galli [8])

CC(C)C12CC(OCc3ccccc3C(F)(F)F)C(C)(CC1Cl)O2 (stereo not shown) [1-1301, 5-chloro-1-methyl-4-isopropyl-2-[[2-(trifluoromethyl)phenyl]methoxy]-7-oxabicyclo[2.2.1]heptane]
≥ 80%: inhibition at 1200 g/ha (Scirpus juncoides [1]) | inhibition at 1200 g/ha [2] | pest or weed control at 1200 g/ha (Scirpus juncoides [3]) | pest or weed control at 1200 g/ha [4]

Cc1noc(C)c1COC1CC2(C(C)C)OC1(C)CC2Cl (stereo not shown) [1-1325, 4-[(5-chloro-4-isopropyl-1-methyl-7-oxabicyclo[2.2.1]heptan-2-yl)oxymethyl]-3,5-dimethyl-isoxazole]
≥ 80%: inhibition at 1200 g/ha (Scirpus juncoides [1]) | inhibition at 1200 g/ha [2] | pest or weed control at 1200 g/ha (Scirpus juncoides [3]) | pest or weed control at 1200 g/ha [4]

CC#CCO[C@@H]1C[C@]2(C(C)C)O[C@@]1(C)CC2Br (stereo partly drawn) [1-1336, (1S,2R,4R)-5-bromo-2-but-2-ynoxy-1-methyl-4-isopropyl-7-oxabicyclo[2.2.1]heptane]
≥ 80%: inhibition at 1200 g/ha (Scirpus juncoides [1]) | inhibition at 1200 g/ha [2] | pest or weed control at 1200 g/ha (Scirpus juncoides [3]) | pest or weed control at 1200 g/ha [4] | inhibition at 1200 g/ha (Digitaria ciliaris [5]) | inhibition at 1200 g/ha (Echinochloa crus-galli [6]) | inhibition at 1200 g/ha (Digitaria ciliaris [7]) | inhibition at 1200 g/ha (Echinochloa crus-galli [8])

CC(C)C12CC(OCc3ccsc3)C(C)(CC1Br)O2 (stereo not shown) [1-1390, 5-bromo-1-methyl-4-isopropyl-2-(thiophen-3-ylmethoxy)-7-oxabicyclo[2.2.1]heptane]
≥ 80%: inhibition at 1200 g/ha (Scirpus juncoides [1]) | inhibition at 1200 g/ha [2] | pest or weed control at 1200 g/ha (Scirpus juncoides [3]) | pest or weed control at 1200 g/ha [4] | inhibition at 1200 g/ha (Digitaria ciliaris [5]) | inhibition at 1200 g/ha (Echinochloa crus-galli [6]) | inhibition at 1200 g/ha (Digitaria ciliaris [7]) | inhibition at 1200 g/ha (Echinochloa crus-galli [8])

CC(C)C12CC(OCc3ccccc3OC(F)(F)F)C(C)(CC1I)O2 (stereo not shown) [1-1418, 2-iodo-1-isopropyl-4-methyl-5-[[2-(trifluoromethoxy)phenyl]methoxy]-7-oxabicyclo[2.2.1]heptane]
≥ 80%: inhibition at 1200 g/ha (Scirpus juncoides [1]) | inhibition at 1200 g/ha [2] | pest or weed control at 1200 g/ha (Scirpus juncoides [3]) | pest or weed control at 1200 g/ha [4]

CC(C)C12CC(OCc3ccccc3C(F)(F)F)C(C)(CC1I)O2 (stereo not shown) [1-1433, 2-iodo-1-isopropyl-4-methyl-5-[[2-(trifluoromethyl)phenyl]methoxy]-7-oxabicyclo[2.2.1]heptane]
≥ 80%: inhibition at 1200 g/ha (Scirpus juncoides [1]) | inhibition at 1200 g/ha [2] | pest or weed control at 1200 g/ha (Scirpus juncoides [3]) | pest or weed control at 1200 g/ha [4]

C#CCO[C@H]1C[C@]2(C)O[C@@]1(C(C)C)C[C@H]2OCc1ccccc1F [1-1607, (1S,2R,4R,5S)-2-[(2-fluorophenyl)methoxy]-1-methyl-4-isopropyl-5-prop-2-ynoxy-7-oxabicyclo[2.2.1]heptane]
≥ 80%: inhibition at 1200 g/ha (Scirpus juncoides [1]) | inhibition at 1200 g/ha [2] | pest or weed control at 1200 g/ha (Scirpus juncoides [3]) | pest or weed control at 1200 g/ha [4] | inhibition at 1200 g/ha (Digitaria ciliaris [5]) | inhibition at 1200 g/ha (Echinochloa crus-galli [6]) | inhibition at 1200 g/ha (Digitaria ciliaris [7]) | inhibition at 1200 g/ha (Echinochloa crus-galli [8])

CC(C)[C@]12C=C[C@](C)(O1)[C@H](OCc1c(Cl)cccc1Cl)C2 [3-732, (1R,4S,5R)-5-[(2,6-dichlorophenyl)methoxy]-4-methyl-1-isopropyl-7-oxabicyclo[2.2.1]hept-2-ene]
≥ 80%: inhibition at 1200 g/ha (Scirpus juncoides [1]) | inhibition at 1200 g/ha [2] | pest or weed control at 1200 g/ha (Scirpus juncoides [3]) | pest or weed control at 1200 g/ha [4] | inhibition at 1200 g/ha (Digitaria ciliaris [5]) | inhibition at 1200 g/ha (Echinochloa crus-galli [6]) | inhibition at 1200 g/ha (Digitaria ciliaris [7]) | inhibition at 1200 g/ha (Echinochloa crus-galli [8])

CC(C)[C@]12C=C[C@](C)(O1)[C@H](OCc1ccccn1)C2 [3-738, 2-[[(1S,2R,4R)-1-methyl-4-isopropyl-7-oxabicyclo[2.2.1]hept-5-en-2-yl]oxymethyl]pyridine]
≥ 80%: inhibition at 1200 g/ha (Scirpus juncoides [1]) | inhibition at 1200 g/ha [2] | pest or weed control at 1200 g/ha (Scirpus juncoides [3]) | pest or weed control at 1200 g/ha [4] | inhibition at 1200 g/ha (Digitaria ciliaris [5]) | inhibition at 1200 g/ha (Echinochloa crus-galli [6]) | inhibition at 1200 g/ha (Digitaria ciliaris [7]) | inhibition at 1200 g/ha (Echinochloa crus-galli [8])

CC(C)[C@@]12C=C[C@@](C)(O1)[C@@H](OCc1ccccc1)C2 [3-748, (1S,4R,5S)-4-methyl-5-phenylmethoxy-1-isopropyl-7-oxabicyclo[2.2.1]hept-2-ene]
≥ 80%: inhibition at 1200 g/ha (Scirpus juncoides [1]) | inhibition at 1200 g/ha [2] | pest or weed control at 1200 g/ha (Scirpus juncoides [3]) | pest or weed control at 1200 g/ha [4] | inhibition at 1200 g/ha (Digitaria ciliaris [5]) | inhibition at 1200 g/ha (Echinochloa crus-galli [6]) | inhibition at 1200 g/ha (Digitaria ciliaris [7]) | inhibition at 1200 g/ha (Echinochloa crus-galli [8])

Cc1ccccc1CO[C@H]1C[C@]2(C(C)C)C=C[C@@]1(C)O2 [3-749, (1S,4R,5S)-4-methyl-5-[(2-methylphenyl)methoxy]-1-isopropyl-7-oxabicyclo[2.2.1]hept-2-ene]
≥ 80%: inhibition at 1200 g/ha (Scirpus juncoides [1]) | inhibition at 1200 g/ha [2] | pest or weed control at 1200 g/ha (Scirpus juncoides [3]) | pest or weed control at 1200 g/ha [4] | inhibition at 1200 g/ha (Digitaria ciliaris [5]) | inhibition at 1200 g/ha (Echinochloa crus-galli [6]) | inhibition at 1200 g/ha (Digitaria ciliaris [7]) | inhibition at 1200 g/ha (Echinochloa crus-galli [8])
